Conditions: for log10 BCF / log10 biotransformation half-life (days): fish

Row | Compound | melting point [°C] | boiling point [°C] | also measured
1 | COC(=O)c1ccccc1S(=O)(=O)NC(=O)Nc1nc(C)cc(C)n1 | 204 | – | log10 Koc (L/kg): 1.62
2 | c1cnoc1 | – | 95 | log10 vapour pressure (mmHg): 1.66
3 | CCCCCCCCCCCCCCCCCCCCCCCCCCCCCCC | 67.9 | 458 | log10 biodegradation half-life (days): 2.44; log10 vapour pressure (mmHg): -10.9
4 | OC[C@H]1O[C@@](CO)(O[C@H]2O[C@H](CO)[C@@H](O)[C@H](O)[C@H]2O)[C@@H](O[C@H]2O[C@H](CO)[C@@H](O)[C@H](O)[C@H]2O)[C@@H]1O | 153 | – | –
5 | CC(C)c1ccc(CO)cc1 | 28 | 249 | ready biodegradability: readily biodegradable
6 | O=CCCCC=O | – | – | log10 vapour pressure (mmHg): -0.222
7 | NC(=O)c1ccc(C(F)(F)F)cc1 | 185 | – | –
8 | CCn1cc(C(=O)O)c(=O)c2ccc(-c3ccncc3)cc21 | 290 | – | –
9 | COCN(COC)c1nc(N(COC)COC)nc(N(COC)COC)n1 | – | – | ready biodegradability: not readily biodegradable; log10 BCF: 0.54
10 | Cn1c(=O)cc(O)c2ccccc21 | 270 | – | –
11 | CC(C)(C)OC(=O)CCl | – | 150 | –
12 | Nc1cccc(-c2cccc(N)c2)c1 | 93.5 | – | –
13 | COC(=O)c1c(C(F)F)nc(C(F)(F)F)c(C2=NCCS2)c1CC(C)C | 78 | – | log10 vapour pressure (mmHg): -5.65
14 | Cc1ccccc1N(C)C | -60 | 194 | log10 vapour pressure (mmHg): -0.0643
15 | CCCCCCCCCCCCCCCCCCOS(=O)(=O)[O-].[Na+] | 212 | – | –
16 | CCCC=CC(C)C | -108 | 112 | –
17 | Cn1c(=O)c2c(ncn2C)n(C)c1=O | 238 | – | –
18 | CN1CCN(C2=Nc3ccccc3Cc3ccccc32)CC1 | 137 | – | –
19 | FC(F)(F)C(F)(Cl)C(Cl)(Cl)C(F)(F)F (stereo not given) | 4 | 98 | –
20 | CC1CCCCC1(C)C (stereo not given) | -29 | 145 | –
21 | COc1c(Cl)c(Cl)c(Cl)c(Cl)c1Cl | 108 | – | log10 BCF: 4.16; log10 biotransformation half-life (days): 2.67
22 | Nc1ccc(C(=O)O)c(N)c1 | 140 | – | –
23 | ClCC=C(Cl)Cl | – | 132 | –
24 | CCCCCCCCCCCCCCCC(C)C | 5.7 | 311 | –
25 | O=C(O)CC[N+](=O)[O-] | 62 | – | –
26 | CC(=O)c1cccc(C)c1 | – | 220 | –

Row | Compound | melting point [°C] | boiling point [°C] | also measured
27 | NC(=S)Nc1ccccc1 | 154 | – | –
28 | CCC(Cl)CC | -105 | 97.5 | log10 vapour pressure (mmHg): 1.67
29 | CC(C)OC(=O)C(C)C | – | 121 | log10 vapour pressure (mmHg): 1.2
30 | FCCCCCCl | – | 143 | –
31 | Ic1cn[nH]c1 | 109 | – | –
32 | O=C(O)C(O)(O)C(O)(O)C(=O)O | 114 | – | –
33 | COc1ccccc1CO | – | 249 | –
34 | CCS(=O)(=O)C(C)(C)S(=O)(=O)CC | 126 | 300 | –
35 | CCCCCCCC(=O)OC(C)C | – | – | log10 vapour pressure (mmHg): -0.963
36 | N#CCO | – | 183 | –
37 | O=[N+]([O-])c1ccsc1 | 78.5 | 225 | –
38 | CCCCOC(=O)CCC(=O)OCCCC | -29.2 | 274 | –
39 | CCc1cc(Cc2cc(CC)cc(C(C)(C)C)c2O)c(O)c(C(C)(C)C)c1 | 120 | – | –
40 | CC(C)NCC(O)c1ccc(O)c(O)c1 (stereo not given) | 170 | – | –
41 | CCCCCCCCCCC(=O)O | 28.6 | 280 | log10 vapour pressure (mmHg): -2.42; ready biodegradability: readily biodegradable
42 | Cc1c(N=C=O)cccc1N=C=O | 18.3 | – | log10 vapour pressure (mmHg): -1.68
43 | CCCCCCCCCCCCCCCC(=O)O | 61.8 | 352 | log10 vapour pressure (mmHg): -6.42; ready biodegradability: readily biodegradable
44 | CCCC(c1ccccc1)c1ccccc1 | 27 | 287 | –
45 | Cc1ccc(Cl)cc1Cl | -13.5 | 201 | log10 vapour pressure (mmHg): -0.339; ready biodegradability: not readily biodegradable
46 | CC(Cl)C(C)(C)O (stereo not given) | – | 142 | –
47 | CCC(C)(C)C(C)C(C)C (stereo not given) | – | 162 | –
48 | C=CC(F)(F)C(F)(F)C(F)(F)C(F)(F)C(F)(F)C(F)(F)F | – | 104 | –
49 | NC[C@H](O)c1ccccc1 | 56.5 | – | –
50 | COc1cccc(C(C)=O)c1 | – | 240 | –
51 | COP(=O)(OC)SCn1c(=O)oc2cc(Cl)cnc21 | 89 | – | log10 vapour pressure (mmHg): -7.44
52 | CCCCCCCCCCCCCCCCCCNC(=O)[C@H](O)[C@@H](O)[C@H](O)[C@H](O)CO | – | – | ready biodegradability: not readily biodegradable

Row | Compound | melting point [°C] | boiling point [°C] | also measured
53 | C=CC(=O)NC(C)(C)CC(C)=O | 57.5 | – | –
54 | CC(C)=C1OC(=O)N(c2cc(OC3CCCC3)c(Cl)cc2F)C1=O | 104 | – | –
55 | Cc1ncc(CO)c(CO)c1O.Cl | 207 | – | –
56 | ClCCCI | – | 171 | –
57 | CC(C)C(OC(=O)c1cccnc1)c1ccc(Cl)cc1 (stereo not given) | 61 | – | –
58 | OCCC1CCNCC1 | – | 228 | –
59 | Cc1ccccc1CCO | 2 | 244 | –
60 | CCCCOC(C)=O | – | 126 | log10 Henry constant (atm·m³/mol): -3.55; log10 Koa: 3.65; log10 vapour pressure (mmHg): 1.06; ready biodegradability: readily biodegradable
61 | CCCCCCCCCc1ccc2ccccc2c1 | 12 | 372 | –
62 | CNc1ccc(N)cc1 | 36 | 258 | –
63 | BrCc1ccccc1Br | 31 | – | –
64 | COc1cc(/C=C/C(=O)CC(=O)/C=C/c2ccc(O)c(OC)c2)ccc1O | 183 | – | –
65 | Clc1cc(Cl)c(-c2ccc(Cl)c(Cl)c2)c(Cl)c1 | – | – | log10 Henry constant (atm·m³/mol): -4.13
66 | CC(=O)O[C@H]1C[C@@H]2CC[C@@H]3[C@H](CC[C@@]4(C)[C@H]3C[C@H]([N+]3(C)CCCCC3)[C@@H]4OC(C)=O)[C@@]2(C)C[C@@H]1N1CCCCC1.[Br-] | 228 | – | –
67 | COc1ccc(C=O)c(C(=O)O)c1OC | 150 | – | –
68 | CN(C)NC(=O)CCC(=O)O | 154 | – | log10 Koc (L/kg): 0.95
69 | NC(=O)c1cnccn1 | 192 | – | –
70 | C1CSCCN1 | – | 175 | –
71 | CCOC(=O)CCC(=O)OC | – | 208 | –
72 | CCCSP(=O)(OCC)SCCC | -13 | – | log10 Koc (L/kg): 1.85; log10 vapour pressure (mmHg): -3.42
73 | Nc1ccc(S(=O)(=O)Nc2ccc(Cl)nn2)cc1 | 187 | – | –
74 | OCCCCCCCCCCF | 22 | – | –
75 | CCOc1ccc(C(=O)O)cc1 | 198 | – | –
76 | O=C(NC(=O)c1ccccc1)c1ccccc1 | 152 | – | –
77 | O=CCO | 97 | – | log10 Henry constant (atm·m³/mol): -7.62
78 | O=[N+]([O-])c1cc[n+]([O-])c2ccccc12 | 154 | – | –

Row | Compound | melting point [°C] | boiling point [°C] | also measured
79 | O=C(O)CCS | 18 | – | log10 vapour pressure (mmHg): -1.3
80 | CCOC(=O)c1ccccc1[N+](=O)[O-] | 30 | 275 | –
81 | N#CSCSc1nc2ccccc2s1 | – | – | ready biodegradability: not readily biodegradable; log10 BCF: 2.32; log10 biotransformation half-life (days): -1.01
82 | c1nnn[nH]1 | 157 | – | –
83 | Clc1cc2oc3ccc(Cl)c(Cl)c3c2cc1Cl | 210 | – | log10 Koa: 9.78; log10 vapour pressure (mmHg): -7.74
84 | Cc1ccccc1O | 29.8 | 191 | log10 Henry constant (atm·m³/mol): -5.92; log10 vapour pressure (mmHg): -0.524; ready biodegradability: readily biodegradable; log10 BCF: 1.03; log10 biotransformation half-life (days): -0.52
85 | OC(CCN1CCCCC1)(c1ccccc1)C1CC2C=CC1C2 (stereo not given) | 114 | – | –
86 | CCC(c1ccc(O)c(C)c1)C(CC)c1ccc(O)c(C)c1 (stereo not given) | 145 | – | –
87 | CCCCCCCCCCCCCCCCOC(=O)CCCCCCCCCCCCC | – | – | ready biodegradability: readily biodegradable
88 | CSCCSC | – | 183 | –
89 | CCn1c2ccccc2c2cc(N)ccc21 | 99 | – | –
90 | C[C@H](CCC(=O)O)[C@H]1CC[C@H]2[C@@H]3CC[C@@H]4C[C@H](O)CC[C@]4(C)[C@H]3CC[C@]12C | 186 | – | –
91 | Cl.N=C(N)SCc1ccccc1 | 173 | – | –
92 | CCC(C)C(CC)CC (stereo not given) | – | 140 | –
93 | CCc1c(C)[nH]c2c1C(=O)C(CN1CCOCC1)CC2 (stereo not given) | 180 | – | –
94 | CC(=O)N(C(C)=O)c1ccc(/N=N/c2ccccc2C)cc1C | 75 | – | –
95 | CCC(=O)c1ccccc1 | 18.6 | 218 | log10 vapour pressure (mmHg): -0.77; ready biodegradability: readily biodegradable
96 | CC(C)(C)N | -72.7 | 45 | log10 vapour pressure (mmHg): 2.57; ready biodegradability: not readily biodegradable
97 | Cc1cc(=O)[nH]c(=S)[nH]1 | – | – | log10 Koc (L/kg): 2.14
98 | CC(C)(Br)C(=O)Br | – | 163 | –
99 | CCOc1ccc([Si](C)(C)CCCc2ccc(F)c(Oc3ccccc3)c2)cc1 | – | – | log10 vapour pressure (mmHg): -7.73
100 | NCCCCCO | 38.5 | 222 | –
101 | Nc1c(F)c(F)cc(F)c1F | 31.5 | 158 | –
102 | CCC(C)Oc1ccccc1 (stereo not given) | – | 194 | –
103 | Cc1cccc(C)c2cc(C(C)C)cc1-2 | 32.3 | – | –
104 | COC(=O)c1ccccc1OC(C)=O | 51.5 | – | –

Row | Compound | melting point [°C] | boiling point [°C] | also measured
105 | C[C@]12CCC(=O)C(O)=C1CC[C@@H]1[C@@H]2CC[C@@]2(C)[C@H]1CC[C@]2(C)O | 170 | – | –
106 | C=CCCCCCCCCCCCCCCCC | 17.5 | – | log10 vapour pressure (mmHg): -4.17
107 | CCOC(CCl)OCC | – | 157 | –
108 | C=C1CC[C@H](O)C/C1=C/C=C1\CCC[C@]2(C)[C@@H]([C@H](C)CCCC(C)C)CC[C@@H]12 | 84.5 | – | –
109 | FC(F)(F)c1ccccc1 | -29.1 | 102 | log10 vapour pressure (mmHg): 1.59; ready biodegradability: not readily biodegradable; log10 BCF: 1.65; log10 biotransformation half-life (days): -0.48
110 | O=C(O)c1ccccc1S(=O)(=O)O | 141 | – | ready biodegradability: not readily biodegradable
111 | CNCC(O)c1ccc(O)cc1 (stereo not given) | 184 | – | –
112 | CCc1ccccc1Nc1ccccc1CC | 29 | – | –
113 | CCOC(=O)C1OC1(C)c1ccccc1 (stereo not given) | – | 274 | –
114 | CCCCCCCCCC#N | -17.9 | 243 | –
115 | CCc1cc(C)nc(C)c1 | 97 | 188 | –
116 | O=C(C=Cc1ccccc1)OCc1ccccc1 | 39 | 350 | log10 vapour pressure (mmHg): -5
117 | CN=NC | -78 | 1.5 | –
118 | CCCCC(CC)COC(=O)CCCCC(=O)OCC(CC)CCCC (stereo not given) | -67.8 | 417 | log10 Henry constant (atm·m³/mol): -6.36; log10 Koc (L/kg): 4.19; log10 vapour pressure (mmHg): -6.07; ready biodegradability: readily biodegradable
119 | CC(Cl)C(Cl)CCl (stereo not given) | – | 168 | –
120 | FC(F)COC(F)F | – | 55.3 | log10 vapour pressure (mmHg): 2.36
121 | CC(C)OC(=O)[C@H](O)[C@@H](O)C(=O)OC(C)C | – | 275 | –
122 | CC(C)C=CCO | – | 159 | –
123 | CCOc1ccccc1C | – | 184 | –
124 | COP(=S)(OC)SCc1nc(N)nc(N)n1 | 165 | – | log10 vapour pressure (mmHg): -6.01; ready biodegradability: not readily biodegradable
125 | CCCCO[N+](=O)[O-] | – | 133 | log10 Henry constant (atm·m³/mol): -2.81; log10 vapour pressure (mmHg): 0.919
126 | CCC(C)(CC)C(C)(C)C | -42.5 | 170 | –

— the OPERA property sets (Mansouri et al. 2018)
